Active and inactive are the calls of the source.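 The calls were made as follows: active = minimum cell viability of 80% or lower across the dose range, counted as toxic; inactive = minimum cell viability above 80%.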
Test: viability loss in fusion assay cells – cell-based, MAGI and MAGI-HeLa co-culture, cytotoxicity control for HIV-1 fusion inhibitor project, dose response (AID 2286);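 also: cells exposed to compound for at least 64 h before ATP readout; 100% = median of DMSO vehicle wells with no ATP signal meaning 0%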
Conditions: MAGI-CCR5 cells viability, CellTiter-Glo ATP luminescence; for minimum viability: measured here: MAGI minimum viability across doses
[1] = MAGI-HeLa co-culture viability, at 50 µM, stronger effect = lower value
[2] = at 12.5 µM, stronger effect = lower value
[3] = at 6.25 µM, stronger effect = lower value
[4] = at 3.13 µM, stronger effect = lower value
[5] = at 1.56 µM, stronger effect = lower value

SMILES | viability [1] [%] | viability (at 50 µM (top of the series)) | minimum viability (at 50 µM, stronger effect = lower value) [%] | further results
Cc1ccccc1N=C1NC(=O)/C(=C/c2cccn2-c2cccc(C(=O)O)c2)S1 | 90 | 94.2% (inactive) | – | minimum viability [2]: 86.3%
O=C(O)c1cc(-c2ccc(/C=N/Nc3ccc(Cl)cc3)o2)ccc1Cl | 87.3 | – | 62 | –
O=C(CCCN1C(=O)/C(=C/c2cccs2)SC1=S)Nc1ccc(O)c(C(=O)O)c1 | 106 | – | 62.3 | –
COc1cc(/C=C2\C(=N)N3N=C(S(C)(=O)=O)SC3=NC2=O)cc(OC)c1OCCOc1ccc(C)cc1 | 111 | 101% (inactive) | – | minimum viability (at 25 µM, stronger effect = lower value): 98.3%
C=CCOC(=O)C1=C(C)N=c2s/c(=C3\C(=O)N(CC(=O)O)c4ccccc43)c(=O)n2C1c1ccc(OC)cc1 (configuration not stated) | 105 | 97.3% (inactive) | – | minimum viability (at 25 µM, stronger effect = lower value): 85.1%
COc1cc(/C=C(\C#N)c2nc3ccc(C)cc3[nH]2)cc([N+](=O)[O-])c1O | 90.4 | – | 74.1 | –
CC(/C=C1\SC(=S)N(c2ccc(C(=O)O)cc2)C1=O)=C\c1ccccc1 | 88 | 99.7% (inactive) | – | minimum viability (at 0.39 µM, stronger effect = lower value): 96.6%
O=C(O)c1[nH]c2ccccc2c1C(c1cccc(O)c1)c1c(C(=O)O)[nH]c2ccccc12 | 95.1 | 91.2% (inactive) | – | minimum viability [3]: 86.4%
CCOc1cc(/C=C2/C(=N)N3C(=NC2=O)SN=C3S(=O)(=O)CC)ccc1OC(=O)c1ccco1 | 108 | 112% (inactive) | – | minimum viability (at 0.1 µM, stronger effect = lower value): 106%
Cc1ccc(-n2c(O)c(C=Nc3ccccc3-c3n[nH]c(=S)[nH]c3=O)c3ccccc3c2=O)c(C)c1 | 85.8 | – | 53.6 | –
O=C1NN(c2ccc(F)c(Cl)c2)C(=O)/C1=C\c1cccc(OC(=O)c2cccs2)c1 | 111 | 92.7% (inactive) | 92.7 | –
O=C(O)c1ccccc1NS(=O)(=O)c1ccc(NNC(=S)Nc2ccc(OC(F)F)cc2)c([N+](=O)[O-])c1 | 86.2 | 101% (inactive) | – | minimum viability [4]: 93%
COc1cc(C(c2c(C(=O)O)[nH]c3ccccc23)c2c(C(=O)O)[nH]c3ccccc23)ccc1OCc1ccccc1 | 90.3 | 85.8% (inactive) | – | minimum viability [2]: 82.7%
O=C(O)/C(CC(=O)c1ccc(Cl)cc1)=N/Nc1ccc([N+](=O)[O-])cc1[N+](=O)[O-] | 114 | 84% (inactive) | 84 | –
Cc1cc(/C=C2\C(=N)N3N=C(S(C)(=O)=O)SC3=NC2=O)c(C)n1Cc1ccccc1 | 116 | 110% (inactive) | – | minimum viability (at 25 µM, stronger effect = lower value): 106%
O=c1/c(=C\c2cc([N+](=O)[O-])cc([N+](=O)[O-])c2O)sc2nc3ccccc3n12 | 115 | 104% (inactive) | – | minimum viability [3]: 97.5%
CC(C)COc1ccc(-c2nn(-c3ccccc3)cc2/C=C2/SC(=S)N(CC(=O)O)C2=O)cc1 | 90.2 | 81.5% (inactive) | 81.5 | –
Cc1cc(C)cc(-n2cccc2/C=C2/C(=N)N3C(=NC2=O)SN=C3S(C)(=O)=O)c1 | 116 | 96.8% (inactive) | 96.8 | –
O=C(O)COc1ccccc1/C=N/NC(=O)CSc1nnc(SCc2cccc3ccccc23)s1 | 106 | 92.5% (inactive) | – | minimum viability [3]: 86.9%
O=C1NN(c2ccccc2)C(=O)/C1=C\c1cccc(OC(=O)c2cccs2)c1 | 103 | 85.1% (inactive) | 85.1 | –
O=C(O)c1ccc(/C=N/NC(=O)c2ccc(CN3c4cccc5cccc(c45)S3(=O)=O)cc2)cc1 | 93.3 | 85% (inactive) | – | minimum viability [3]: 83.3%
Cc1cc(C)c2nc(N3C(=O)C(O)=C(C(=O)c4ccco4)C3c3ccco3)sc2c1 (configuration not stated) | 119 | 91.8% (inactive) | 91.8 | –
CC(Oc1ccc(Cl)cc1Cl)C(=O)Nc1ccc(S(=O)(=O)Nc2cnc3ccccc3n2)cc1 (configuration not stated) | 96.5 | – | 66.7 | –
Cc1cc(/C=C2/C(=N)N3C(=NC2=O)SN=C3S(C)(=O)=O)c(C)n1-c1ccccc1 | 116 | 104% (inactive) | – | minimum viability (at 0.2 µM, stronger effect = lower value): 101%
COc1ccc(-c2csc(NC(=O)CSc3nc(C)nc4sc(C(=O)O)c(C)c34)n2)cc1 | 109 | 99.7% (inactive) | – | minimum viability [5]: 83.4%
N#Cc1c(-c2ccccc2)nc(SCc2ccc(Cl)cc2)[nH]c1=O | 113 | 86.1% (inactive) | 86.1 | –

SMILES | viability [1] [%] | viability (at 50 µM (top of the series)) | minimum viability (at 50 µM, stronger effect = lower value) [%] | further results
N#Cc1c(-c2ccccc2)nc(SCc2cccc(C(F)(F)F)c2)[nH]c1=O | 115 | 82.1% (inactive) | 82.1 | –
O=C(O)CN1C(=O)/C(=C\c2cc(Br)ccc2OCc2ccc(F)cc2)SC1=S | 91.5 | 97.7% (inactive) | 97.7 | –
O=C(O)c1ccc(Cl)c(S(=O)(=O)Nc2ccccc2C(=O)Nc2ccc(Cl)cc2)c1 | 92.9 | 82.6% (inactive) | 82.6 | –
COc1cc(/C=C2/C(=O)NN(c3ccc(C)c(Cl)c3)C2=O)cc([N+](=O)[O-])c1O | 103 | 107% (inactive) | – | minimum viability [5]: 91.2%
CCCOc1ccc(C2C(C(=O)c3cc4ccccc4o3)=C(O)C(=O)N2c2cc(C)on2)cc1 (configuration not stated) | 97.9 | – | 67.9 | –
COc1cc(NS(=O)(=O)c2ccc(Nc3nc(-c4ccccc4)cs3)cc2)nc(OC)n1 | 82.3 | – | 67.3 | –
Cc1c(CCC(=O)O)c(=O)oc2c(C)c3occ(-c4ccc(Br)cc4)c3cc12 | 97.7 | – | – | minimum viability [2]: 72.5%
Cc1noc(NS(=O)(=O)c2ccc(NC(=O)Nc3ccc(Cl)c(Cl)c3)cc2)c1C | 120 | 95.5% (inactive) | – | minimum viability [2]: 93%
Cc1ccc(N2C(=O)/C(=C/c3ccc(CN(CCC#N)S(C)(=O)=O)o3)C(=O)NC2=S)cc1C | 98.6 | 89.2% (inactive) | – | minimum viability [2]: 84.4%
CC(C)S(=O)(=O)C1=NSC2=NC(=O)/C(=C\c3ccc(-c4ccccc4)o3)C(=N)N21 | 123 | – | 73.2 | –
O=C(O)c1cc(-c2ccc(/C=C3\NC(=O)N(c4ccc(Cl)cc4)C3=O)o2)ccc1Cl | 95.2 | 102% (inactive) | – | minimum viability (at 0.78 µM, stronger effect = lower value): 93.3%
COc1ccccc1OCCOc1ccc(/C=C2\C(=N)N3N=C(S(C)(=O)=O)SC3=NC2=O)cc1 | 98.1 | 89.2% (inactive) | 89.2 | –
CC(C)CS(=O)(=O)C1=NSC2=NC(=O)/C(=C\c3ccc(OC(=O)c4ccco4)cc3)C(=N)N21 | 104 | 95.1% (inactive) | – | minimum viability [3]: 85.3%
O=C(O)c1cccc2c(-c3ccccc3)c(-c3ccccc3)[nH]c12 | 128 | 93.1% (inactive) | 93.1 | –
CS(=O)(=O)C1=NSC2=NC(=O)/C(=C\c3cccn3-c3ccc(Cl)cc3)C(=N)N21 | 93.6 | 88% (inactive) | 88 | –
O=C(COc1cccc2ccccc12)Nc1ccc(Cl)cc1C(=O)O | 86.1 | – | 67.5 | –
O=C1NC(=S)N(c2ccc(F)cc2)C(=O)/C1=C/c1ccco1 | 122 | 131% (inactive) | – | minimum viability [5]: 105%
O=C(O)/C=C/C(=O)Nc1ccc(C2(c3ccc(NC(=O)/C=C/C(=O)O)cc3)c3ccccc3-c3ccccc32)cc1 | 120 | 93.2% (inactive) | – | minimum viability (at 25 µM, stronger effect = lower value): 88.8%
O=C(CN1C(=O)/C(=C2\SC(=S)N(CCS(=O)(=O)O)C2=O)c2ccccc21)Nc1cccc(Br)c1 | 113 | 83.3% (inactive) | 83.3 | –
COc1cc(/C=N/Nc2ccc(Cl)c(C(=O)O)c2)ccc1OC(=O)c1ccc(F)cc1 | 103 | 89.8% (inactive) | 89.8 | –
CCc1nnc(NS(=O)(=O)c2ccc(NC(=O)/C=C/c3ccccc3Cl)cc2)s1 | 109 | 96.3% (inactive) | – | minimum viability [5]: 95.9%
CC(C)(C)OC(=O)N1CCC(c2cc(=O)n3[nH]cc(C(=O)Nc4ccc(F)c(Cl)c4)c3n2)CC1 | 98.3 | 97.5% (inactive) | – | minimum viability (at 25 µM, stronger effect = lower value): 88.7%
O=C1N=c2ccc(Br)cc2=C1c1sc(=S)n(NS(=O)(=O)c2ccccc2)c1O | 89.2 | 102% (inactive) | – | minimum viability [4]: 98.5%
Oc1c(Br)cc(Br)c(/C=N/n2c(-c3ccccc3)n[nH]c2=S)c1Br | 99.3 | 90.8% (inactive) | 90.8 | –
COc1ccc(-c2nn(-c3ccccc3)cc2/C=C\C(=O)Nc2ccc(C(=O)O)cc2)cc1 | 93.2 | – | 73 | –
